This passage reports IC50 results from US11970511B2, “Tetrahydropyran-based thiodisaccharide mimics as Galectin-3 inhibitors” (BRISTOL-MYERS SQUIBB COMPANY, priority 2018, dated 2024).

Structures are written as SMILES.

For this experiment, the target named is His-tagged recombinant human Gal-3 (hGal-3) (Homo sapiens, UniProt P17931). The experiment can be described thus: Gal-3 HTRF assay: His-tagged hGal-3 binding to B-ASF, Anti-His terbium antibody / Streptavidin d2 detection.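 Also: compound preincubated 30 min with hGal-3, then 1 h with B-ASF, DMSO wells with B-ASF serving as positive control and those lacking B-ASF as negative control.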 The following applies: 15 nM hGal-3, 15 nM B-ASF, three replicates, room temperature.
Sequence of His-tagged recombinant human Gal-3 (hGal-3) (P17931 whole entry): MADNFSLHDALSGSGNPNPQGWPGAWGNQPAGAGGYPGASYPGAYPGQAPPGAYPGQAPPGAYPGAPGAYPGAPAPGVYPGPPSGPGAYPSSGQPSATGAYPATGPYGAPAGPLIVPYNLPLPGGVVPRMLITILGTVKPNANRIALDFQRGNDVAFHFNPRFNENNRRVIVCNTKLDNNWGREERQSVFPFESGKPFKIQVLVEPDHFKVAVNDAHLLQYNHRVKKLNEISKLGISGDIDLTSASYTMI
On to `CO[C@@H]1[C@@H](n2cc(-c3ccc4nccnc4c3)nn2)[C@@H](O)[C@@H](CO)O[C@H]1S[C@@H]1COC[C@H](n2cc(-c3ccccc3)nn2)[C@H]1O` [Example A8, (2R,3R,4S,5R,6S)-6-(((3R,4R,5S)-4-hydroxy-5-(4-phenyl-1H-1,2,3-triazol-1-yl)tetrahydro-2H-pyran-3-yl)thio)-2-(hydroxymethyl)-5-methoxy-4-(4-(quinoxalin-6-yl)-1H-1,2,3-triazol-1-yl)tetrahydro-2H-pyran-3-ol], for which the half-maximal inhibitory concentration (IC50) worked out at 170 nM.

In the case of `COc1cnc(-c2cn([C@H]3COC[C@@H](S[C@@H]4O[C@H](CO)[C@H](O)[C@H](n5cc(-c6cc(F)c(F)c(F)c6)nn5)[C@H]4OC)[C@@H]3O)nn2)nc1N` [Example 21, (2R,3R,4S,5R,6S)-6-(((3R,4R,5S)-5-(4-(4-amino-5-methoxypyrimidin-2-yl)-1H-1,2,3-triazol-1-yl)-4-hydroxytetrahydro-2H-pyran-3-yl)thio)-2-(hydroxymethyl)-5-methoxy-4-(4-(3,4,5-trifluorophenyl)-1H-1,2,3-triazol-1-yl)tetrahydro-2H-pyran-3-ol], the IC50 came out at 23 nM.

Turning to `COC1C(SC2CN(C(C)=O)CC(n3cc(-c4cccc(F)c4)nn3)C2O)OC(CO)C(O)C1n1cc(-c2cccc(F)c2)nn1` [Example B3, 1-((3S,4R,5R)-3-(4-(3-fluorophenyl)-1H-1,2,3-triazol-1-yl)-5-(((2S,3R,4S,5R,6R)-4-(4-(3-fluorophenyl)-1H-1,2,3-triazol-1-yl)-5-hydroxy-6-(hydroxymethyl)-3-methoxytetrahydro-2H-pyran-2-yl)thio)-4-hydroxypipeddin-1-yl)ethan-1-one], the IC50 was found to be 54 nM.

As for `CO[C@@H]1[C@@H](NC(=O)c2cc(F)c(F)c(F)c2)[C@@H](O)[C@@H](CO)O[C@H]1S[C@@H]1COC[C@H](n2cc(-c3ccccc3)nn2)[C@H]1O` [Example A12, 3,4,5-trifluoro-N-((2R,3R,4S,5R,6S)-3-hydroxy-6-(((3R,4R,5S)-4-hydroxy-5-(4-phenyl-1H-1,2,3-triazol-1-yl)tetrahydro-2H-pyran-3-yl)thio)-2-(hydroxymethyl)-5-methoxytetrahydro-2H-pyran-4-yl)benzamide], the IC50 came out at 1400 nM.

As to `COc1ncc(-c2cn(C3COCC(SC4OC(CO)C(O)C(n5cc(-c6cc(F)c(F)c(F)c6)nn5)C4OCC(=O)N4CC(C)OC(C)C4)C3O)nn2)cn1` (single isomer, unassigned) [Example 32], the IC50 was 19 nM.

Consider `CO[C@@H]1[C@@H](n2cc(-c3ccnnc3)nn2)[C@@H](O)[C@@H](CO)O[C@H]1S[C@@H]1COC[C@H](n2cc(-c3ccccc3)nn2)[C@H]1O` [Example A9, (2R,3R,4S,5R,6S)-6-(((3R,4R,5S)-4-hydroxy-5-(4-phenyl-1H-1,2,3-triazol-1-yl)tetrahydro-2H-pyran-3-yl)thio)-2-(hydroxymethyl)-5-methoxy-4-(4-(pyridazin-4-yl)-1H-1,2,3-triazol-1-yl)tetrahydro-2H-pyran-3-ol], for which the IC50 turned out to be 1240 nM.

With `CO[C@@H]1[C@@H](n2cc(-c3cccc(F)c3)nn2)[C@@H](O)[C@@H](CO)O[C@H]1S[C@@H]1COC[C@H](n2cc(-c3ccccc3)nn2)[C@H]1O` [Example A4, (2R,3R,4S,5R,6S)-4-(4-(3-fluorophenyl)-1H-1,2,3-triazol-1-yl)-6-(((3R,4R,5S)-4-hydroxy-5-(4-phenyl-1H-1,2,3-triazol-1-yl)tetrahydro-2H-pyran-3-yl)thio)-2-(hydroxymethyl)-5-methoxytetrahydro-2H-pyran-3-ol], the half-maximal inhibitory concentration (IC50) was 26 nM.

For the molecule `CO[C@@H]1[C@@H](n2cc(-c3cncnc3)nn2)[C@@H](O)[C@@H](CO)O[C@H]1S[C@@H]1COC[C@H](n2cc(-c3ccccc3)nn2)[C@H]1O` [Example A6, (2R,3R,4S,5R,6S)-6-(((3R,4R,5S)-4-hydroxy-5-(4-phenyl-1H-1,2,3-triazol-1-yl)tetrahydro-2H-pyran-3-yl)thio)-2-(hydroxymethyl)-5-methoxy-4-(4-(pyrimidin-5-yl)-1H-1,2,3-triazol-1-yl)tetrahydro-2H-pyran-3-ol], the IC50 was 360 nM.

With `O=C(O)COC1C(SC2COCC(n3cc(-c4cncnc4)nn3)C2O)OC(CO)C(O)C1n1cc(-c2cc(F)c(F)c(F)c2)nn1` [Example 26, 2-(((2S,3R,4S,5R,6R)-5-hydroxy-2-(((3R,4R,5S)-4-hydroxy-5-(4-(pyrimidin-5-yl)-1H-1,2,3-triazol-1-yl)tetrahydro-2H-pyran-3-yl)thio)-6-(hydroxymethyl)-4-(4-(3,4,5-trifluorophenyl)-1H-1,2,3-triazol-1-yl)tetranydro-2H-pyran-3-yl)oxy)acetic acid], the IC50 amounted to 15 nM.

One may read the IC50 as the concentration at which inhibition is half-maximal.
